Experimental data as given in BindingDB's records for doi:10.1021/bi3002067 (The University of Auckland, 2012).
pKi: −log10 of the molar value.

Target: Salicylate synthase (Mycobacterium tuberculosis (strain CDC 1551 / Oshkosh), UniProt P9WFX0)
Experiment: Fluorescence-Based Thermal Shift Assay
Procedure: The thermal stability of MbtI in the absence and presence of inhibitors was measured using a fluorescence-based thermal shift assay.

Salicylate synthase, sequence (P9WFX0 whole entry): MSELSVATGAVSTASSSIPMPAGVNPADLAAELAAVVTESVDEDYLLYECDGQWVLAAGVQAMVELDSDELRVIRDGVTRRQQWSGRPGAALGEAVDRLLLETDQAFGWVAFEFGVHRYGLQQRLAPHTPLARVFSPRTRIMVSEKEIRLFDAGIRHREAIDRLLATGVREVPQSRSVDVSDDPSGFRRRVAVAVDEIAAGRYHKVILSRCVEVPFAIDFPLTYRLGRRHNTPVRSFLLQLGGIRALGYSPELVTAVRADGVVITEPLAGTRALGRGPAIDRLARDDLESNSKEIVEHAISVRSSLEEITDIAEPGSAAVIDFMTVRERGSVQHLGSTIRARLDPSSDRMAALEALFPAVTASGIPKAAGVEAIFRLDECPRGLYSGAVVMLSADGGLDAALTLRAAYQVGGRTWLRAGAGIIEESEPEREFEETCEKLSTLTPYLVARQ

## O=C(O)C(=CC1CC1)Oc1cccc(C(=O)O)c1O [cyclopropyl-AMT]
  pKi: 4.92
